Data published in patent publication US5508437A, “Analogs of tyrosine sulfate or tyrosine phosphate containing peptides” (Hoffmann-La Roche Inc., priority 1993, dated 1996).
Starred links: 1 amine or outer side, 2 acyl side, 3 side chain; linkers in the order of their positions; H or OH if unused. Positions of bridges follow the written chain, without caps; N, C: chain ends. Non-standard residues stand in square brackets, D forms with d. Residues, ends and D or L forms follow the SMILES beside them. *: point of attachment. Propanoyl(3-(4-HOOCCH2-Ph)) = O=C(O)Cc1ccc(CCC(=O)*)cc1; X6 = O=C([C@H](Cc1ccc(Cc2nnn[nH]2)cc1)N[*:1])[*:2]; X10 = O=C(CCc1ccc(-c2nn[nH]n2)cc1)*; X2 = O=C(CCc1ccc(Cc2nnn[nH]2)cc1)*; NMeF = CN[C@@H](Cc1ccccc1)C(=O)O; Nle = CCCC[C@H](N)C(=O)O

Tests used:
[1] = target: T1, Bovine Striatum (3H-CCK-8-(SO3 H) receptor binding) (Bos taurus, UniProt P79266); assay: In vitro receptor binding assay, 3H-CCK-8-(SO3H), bovine striatum homogenate; conditions: 3H-CCK-8-(SO3H) 0.15 nM, 30 min at 25° C., bovine striatum homogenate; read-out: Bovine Striatum IC50 (concentration to inhibit 50% of specific 3H-CCK-8-(SO3H) binding)
T1 construct: tissue homogenate (striatum approximately 0.26 mg protein in 2 mL final volume); from tissue; host or cells: bovine striatum membrane homogenate
T1 sequence (P79266 1-454): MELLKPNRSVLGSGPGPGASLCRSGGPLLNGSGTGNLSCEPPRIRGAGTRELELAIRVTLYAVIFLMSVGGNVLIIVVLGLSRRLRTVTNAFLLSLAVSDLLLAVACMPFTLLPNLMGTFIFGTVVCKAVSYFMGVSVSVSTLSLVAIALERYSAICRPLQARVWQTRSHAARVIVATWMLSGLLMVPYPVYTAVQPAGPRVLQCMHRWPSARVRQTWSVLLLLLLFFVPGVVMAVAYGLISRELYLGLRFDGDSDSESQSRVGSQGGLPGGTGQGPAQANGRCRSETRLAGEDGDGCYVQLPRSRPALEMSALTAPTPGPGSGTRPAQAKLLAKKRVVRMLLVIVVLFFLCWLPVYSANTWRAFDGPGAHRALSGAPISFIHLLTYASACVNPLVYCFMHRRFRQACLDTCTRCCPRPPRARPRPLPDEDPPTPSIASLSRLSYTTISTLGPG
Experimental: (§1) Frozen bovine striatum (approx. 5 g) or fresh rat pancreas (approx. 5 g) cleaned of fat and extraneous tissue were homogenized in HEPES buffer #1 (10 mM HEPES+130 mM NaCl+5 mM MgCl2, pH 7.4) using 35 parts buffer per 1 part tissue on a wet weight/volume basis (approx. 175 mL). The tissue was homogenized 2×for approx. 15 sec. at 0° C. using a Polytron homogenizer at a setting of 6. The tissue was isolated by centrifugation at 48,000× g for 10 min at 0° C. The resulting tissue pellet was resuspended in HEPES buffer #2 (10 mM HEPES+130 mM NaCl+5 mM MgCl2 +1 mg/L phenylmethanasulfonyl fluoride (PMSF)+200 mg/L Bacitracin): 1 part striatal tissue (original wet weight) per 80 parts buffer and 1 part pancreas tissue (original wet weight) per 500 to 1000 parts buffer.
(§2) Incubation was initiated by combining various concentrations of native CCK-8 or peptides of the invention with ^3 H-CCK-8-(SO3 H) (final conc.=0.15 nM) and tissue homogenate (striatum approximately 0.26 mg protein in 2 mL final volume; pancreas approximately 0.100 mg protein in 1 mL final volume). Samples were incubated for 30 min at 25° C. and the incubation terminated by pouring the mixture onto a pre-wetted Whatman GF/B filter on a Sandbeck Vacuum Filtration Manifold. The incubation tubes were washed with 2×3 mL of ice-cold HEPES Buffer #2 and the wash filtered through the GF/B filter. The filter was air dried for 10 min and then placed in a scintillation vial with 12 mL of DuPont/NEN Aquasol scintillation cocktail. The vials were shaken overnight and then counted using a liquid scintillation spectrometer. Non-specific binding was determined in the presence of 1 micromolar native CCK-8 and subtracted from all samples to determine specific binding. The concentration of peptide necessary to inhibit 50% of total specific H-CCK-8-(SO3 H) binding (IC50 value) was determined by log-probit analysis.

[2] = target: T2, rat pancreas (3H-CCK-8-(SO3 H) receptor binding) (Rattus norvegicus, UniProt P30551); assay: In vitro receptor binding assay, 3H-CCK-8-(SO3H), rat pancreas homogenate; conditions: 3H-CCK-8-(SO3H) 0.15 nM, 30 min at 25° C., rat pancreas homogenate; read-out: Rate Pancreas IC50 (concentration to inhibit 50% of specific 3H-CCK-8-(SO3H) binding)
T2 construct: pancreas approximately 0.100 mg protein in 1 mL final volume; from tissue; host or cells: rat pancreas membrane homogenate
T2 sequence (P30551 1-444): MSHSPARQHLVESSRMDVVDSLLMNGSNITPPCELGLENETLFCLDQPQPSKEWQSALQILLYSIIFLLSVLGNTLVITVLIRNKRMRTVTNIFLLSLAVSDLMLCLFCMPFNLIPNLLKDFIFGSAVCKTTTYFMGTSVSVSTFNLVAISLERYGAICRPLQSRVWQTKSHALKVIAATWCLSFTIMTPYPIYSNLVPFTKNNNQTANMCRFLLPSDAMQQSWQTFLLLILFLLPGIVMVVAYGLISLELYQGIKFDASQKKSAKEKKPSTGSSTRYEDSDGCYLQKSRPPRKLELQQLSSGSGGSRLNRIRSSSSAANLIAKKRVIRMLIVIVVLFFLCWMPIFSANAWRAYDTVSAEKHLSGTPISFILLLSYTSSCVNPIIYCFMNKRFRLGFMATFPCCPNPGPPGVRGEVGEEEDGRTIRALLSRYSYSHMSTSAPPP
Experimental: as §1, §2

Row | Compound | IC50 [1] [µM] | IC50 [2] [µM]
1 | CCCC[C@H](NC(=O)[C@H](Cc1ccc(Cc2nnn[nH]2)cc1)NC(C)=O)C(=O)NCC(=O)N[C@@H](Cc1c[nH]c2ccccc12)C(=O)N[C@@H](CCCC)C(=O)N[C@@H](CC(=O)O)C(=O)N(C)[C@@H](Cc1ccccc1)C(N)=O [Example 65, Ac-Phe(4-CH2 -tetrazole) -Nle-Gly-Trp-Nle-Asp- N-methyl-Phe-NH2] (Ac-[X6][Nle]GW[Nle]D[NMeF]-NH2) | 0.069 | 0.26
2 | CCCC[C@H](NC(=O)CCc1ccc(Cc2nnn[nH]2)cc1)C(=O)NCC(=O)N[C@@H](Cc1c[nH]c2ccccc12)C(=O)N[C@@H](CCCC)C(=O)N[C@@H](CC(=O)O)C(=O)N(C)[C@@H](Cc1ccccc1)C(N)=O [Example 66, Desamino-Phe(4-CH2 -tetrazole)-Nle-Gly-Trp-Nle-Asp-N-methyl-Phe-NH2] (X2-[Nle]GW[Nle]D[NMeF]-NH2) | 0.16 | 0.71
3 | CSCC[C@@H]1NC(=O)[C@H](Cc2c[nH]c3ccccc23)NC(=O)CNC(=O)[C@@H](NC(=O)CCc2ccc(-c3nn[nH]n3)cc2)CCCCNC(=O)C[C@@H](C(=O)N(C)[C@@H](Cc2ccccc2)C(N)=O)NC1=O [Example 68] (X10-KGWMD[NMeF]-NH2; lactam 1-5) | 1.4 | 2.9
4 | CSCC[C@H](NC(=O)CCc1ccc(CC(=O)O)cc1)C(=O)NCC(=O)N[C@@H](Cc1c[nH]c2ccccc12)C(=O)N[C@@H](CCSC)C(=O)N[C@@H](CC(=O)O)C(=O)N(C)[C@@H](Cc1ccccc1)C(N)=O [Example 69, Desamino-Phe(4-CH2 -COOH)-Met-Gly-Trp-Met-Asp-N-methyl-Phe-NH2] ({Propanoyl(3-(4-HOOCCH2-Ph))}-MGWMD[NMeF]-NH2) | 0.0032 | 0.0018
5 | CCCC[C@H](NC(=O)CCc1ccc(CC(=O)O)cc1)C(=O)NCC(=O)N[C@@H](Cc1c[nH]c2ccccc12)C(=O)N[C@@H](CCCC)C(=O)N[C@@H](CC(=O)O)C(=O)N(C)[C@@H](Cc1ccccc1)C(N)=O [Example 70, Desamino-Phe(4-CH2 COOH)-Nle-Gly-Trp-Nle-Asp-N-methyl-Phe-NH2] ({Propanoyl(3-(4-HOOCCH2-Ph))}-[Nle]GW[Nle]D[NMeF]-NH2) | 0.2 | 0.33
6 | CCCC[C@H](NC(=O)CCc1ccc(CC(=O)O)cc1)C(=O)N[C@H](C)C(=O)N[C@@H](Cc1c[nH]c2ccccc12)C(=O)N[C@@H](CCCC)C(=O)N[C@@H](CC(=O)O)C(=O)N(C)[C@@H](Cc1ccccc1)C(N)=O [Example 71, Desamino-Phe(4-CH2 COOH)-Nle-(D)Ala-Trp-Nle- Asp-N-methyl-Phe-NH2] ({Propanoyl(3-(4-HOOCCH2-Ph))}-[Nle][dA]W[Nle]D[NMeF]-NH2) | 1.4 | 1.8
